In US20060193786A1, “Pharmaceutical composition for intranasal administration containing a CGRP antagonist” (Boehringer Ingelheim Pharma GmbH & Co. KG, priority 2002, published 2006):

Assay: Stability testing of more highly concentrated nasal spray solutions
Assay type: physicochemical
Conditions: for content of active substance (A): as free base
Experimental: Stability testing of more highly concentrated nasal spray solutions according to the invention:
The total decomposition which is high in some circumstances (particularly at 40° C.) is based on hydrolysis.
The content of active substance (A) given in Table 1 refers in each case to the free base originally weighed out.

[1] = active substance concentration 15, 3-month value, 25° C.
[2] = active substance concentration 15, 3-month value, 40° C.
[3] = active substance concentration 15, 6-month value, 25° C.
[4] = active substance concentration 15, 6-month value, 40° C.
[5] = active substance concentration 15, 6-week value, 25° C.
[6] = active substance concentration 15, 6-week value, 40° C.
[7] = active substance concentration 15, initial value
[8] = active substance concentration 20%, 3-month value, 25° C.
[9] = active substance concentration 20%, 3-month value, 40° C.
[10] = active substance concentration 20%, 6-month value, 25° C.
[11] = active substance concentration 20%, 6-month value, 40° C.
[12] = active substance concentration 20%, 6-week value, 25° C.
[13] = active substance concentration 20%, 6-week value, 40° C.
[14] = active substance concentration 20%, initial value
[15] = active substance concentration 30%, 3-month value, 25° C.
[16] = active substance concentration 30%, 3-month value, 40° C.
[17] = active substance concentration 30%, 6-month value, 25° C.
[18] = active substance concentration 30%, 6-month value, 40° C.
[19] = active substance concentration 30%, 6-week value, 25° C.
[20] = active substance concentration 30%, 6-week value, 40° C.
[21] = active substance concentration 30%, initial value

- decomposition by oxidation [1]: 0.64%
- overall decomposition [1]: 1.69%
- content of active substance (A) [1]: 147.7 mg/mL
- decomposition by oxidation [2]: 0.55%
- overall decomposition [2]: 8.22%
- content of active substance (A) [2]: 139.4 mg/mL
- decomposition by oxidation [3]: 0.82%
- overall decomposition [3]: 2.07%
- content of active substance (A) [3]: 147.7 mg/mL
- decomposition by oxidation [4]: 0.78%
- overall decomposition [4]: 15.33%
- content of active substance (A) [4]: 131.7 mg/mL
- decomposition by oxidation [5]: 0.72%
- overall decomposition [5]: 1.60%
- content of active substance (A) [5]: 148.1 mg/mL
- decomposition by oxidation [6]: 0.52%
- overall decomposition [6]: 4.46%
- content of active substance (A) [6]: 142.3 mg/mL
- decomposition by oxidation [7]: 0.59%
- overall decomposition [7]: 1.23%
- content of active substance (A) [7]: 148.6 mg/mL
- decomposition by oxidation [8]: 0.53%
- overall decomposition [8]: 1.50%
- content of active substance (A) [8]: 202.8 mg/mL
- decomposition by oxidation [9]: 0.47%
- overall decomposition [9]: 8.23%
- content of active substance (A) [9]: 191.4 mg/mL
- decomposition by oxidation [10]: 0.77%
- overall decomposition [10]: 1.99%
- content of active substance (A) [10]: 202 mg/mL
- decomposition by oxidation [11]: 0.74%
- overall decomposition [11]: 14.61%
- content of active substance (A) [11]: 182.8 mg/mL
- decomposition by oxidation [12]: 0.54%
- overall decomposition [12]: 1.09%
- content of active substance (A) [12]: 198.7 mg/mL
- decomposition by oxidation [13]: 0.55%
- overall decomposition [13]: 3.97%
- content of active substance (A) [13]: 192.1 mg/mL
- decomposition by oxidation [14]: 0.56%
- overall decomposition [14]: 1.27%
- content of active substance (A) [14]: 197.9 mg/mL
- decomposition by oxidation [15]: 0.60%
- overall decomposition [15]: 1.48%
- content of active substance (A) [15]: 270 mg/mL
- decomposition by oxidation [16]: 0.59%
- overall decomposition [16]: 7.81%
- content of active substance (A) [16]: 260 mg/mL
- decomposition by oxidation [17]: 0.91%
- overall decomposition [17]: 2.04%
- content of active substance (A) [17]: 273 mg/mL
- decomposition by oxidation [18]: 0.84%
- overall decomposition [18]: 13.36%
- content of active substance (A) [18]: 246 mg/mL
- decomposition by oxidation [19]: 0.62%
- overall decomposition [19]: 1.19%
- content of active substance (A) [19]: 264 mg/mL
- decomposition by oxidation [20]: 0.58%
- overall decomposition [20]: 3.95%
- content of active substance (A) [20]: 260 mg/mL
- decomposition by oxidation [21]: 0.56%
- overall decomposition [21]: 1.20%
- content of active substance (A) [21]: 269 mg/mL
Structure (SMILES): NCCCC[C@H](NC(=O)[C@@H](Cc1cc(Br)c(O)c(Br)c1)NC(=O)N1CCC(N2Cc3ccccc3NC2=O)CC1)C(=O)N1CCN(c2ccncc2)CC1 [(A), 1-[N^2-[3,5-dibromo-N-[[4-(3,4-dihydro-2(1H)-oxoquinazolin-3-yl)-1-piperidinyl]carbonyl]-D-tyrosyl]-L-lysyl]-4-(4-pyridinyl)-piperazine]
- oxidative decomposition (hydrochloride in aqueous solution, over a long period): virtually unchanged or increases only slightly
